SMILES strings stand for the structures. Like-named read-outs stand apart in the source and are kept apart here.

This test concerns primary rat mixed cortical cells. The experiment in a line: In vitro myelination assay (MBP positive myelin strands, fold myelin pixels above background). The test is classed as cell-based. As to conditions: Rattus norvegicus; for fold induction at 1 µM: 1.0 μM compound; for fold induction at 10 µM: 10.0 μM compound. In short, it runs like this:
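Read-out is total MBP-positive myelin strand pixels per well, detected by custom ridge-tracing software and reported as fold over untreated baseline. Primary P1 rat mixed cortical cells received compound (1.0 or 10.0 μM) for 14 days, with medium half-replaced on days 6 and 10. Standard deviation was taken across all replicates.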

[1] abbreviates: relative to baseline of no added compound, read-out: Fold myelin pixels above background.
The mark [2] stands for this setting: relative to baseline of no added compound, read-out: Fold myelin pixels above background, 1.0 μM.
Setting [3] is: relative to baseline of no added compound, read-out: Fold myelin pixels above background, 10.0 μM.
The mark [4] stands for this setting: read-out: Fold myelin pixels above background relative to baseline of no added compound.

In the case of `Cc1cc(Nc2ncn(-c3cc(F)cc(F)c3)n2)cc(OC2CCCN(C3COC3)C2)c1` (stereo not shown) [Compound 620, 1-(3,5-difluorophenyl)-N-[3-methyl-5-[[1-(oxetan-3-yl)-3-piperidyl]oxy]phenyl]-1,2,4-triazol-3-amine], under setting [1], the fold induction at 1 µM lay within 10 to 100 and the fold induction at 10 µM was 1 to 10.
With `Cc1cc(Nc2ncn(-c3cccc(F)c3)n2)cc(N2CCC(C3COC3)CC2)c1` [Compound 522, 1-(3-fluorophenyl)-N-[3-methyl-5-[4-(oxetan-3-yl)-1-piperidyl]phenyl]-1,2,4-triazol-3-amine], under setting [1], the fold induction at 1 µM is 100 to 1000 and the fold induction at 10 µM is 100 to 1000.
As to `Cc1cc(Nc2ncn(-c3cc(F)cc(F)c3)n2)nc(C2=CCOCC2)c1` [Compound 774, N-[1-(3,5-difluorophenyl)-1,2,4-triazol-3-yl]-6-(3,6-dihydro-2H-pyran-4-yl)-4-methyl-pyridin-2-amine], under setting [1], the fold induction at 1 µM was in the range of 1 to 10 and the fold induction at 10 µM fell in the range of 10 to 100.
Consider `Cc1cc(Nc2ncn(-c3cc(F)cc(F)c3)n2)cc(N2CCN(C)C(C)C2)c1` (stereo not shown) [Compound 119, 1-(3,5-difluorophenyl)-N-[3-(3,4-dimethylpiperazin-1-yl)-5-methyl-phenyl]-1,2,4-triazol-3-amine], for which, under setting [2], the fold induction at 1 µM lay within 100 to 1000. The fold induction at 10 µM under setting [3] was 10 to 100.
For `Cc1cc(Nc2ncn(-c3cc(F)cc(F)c3)n2)cc(N2CCOC(CCO)C2)c1` (stereo not shown) [Compound 958, 2-[4-[3-[[1-(3,5-difluorophenyl)-1,2,4-triazol-3-yl]amino]-5-methyl-phenyl]morpholin-2-yl]ethanol], under setting [4], the fold induction at 1 µM is 10 to 100 and the fold induction at 10 µM is at most 1.
Take `N#Cc1cc(Nc2ncn(-c3cccnc3)n2)cc(N2CCOCC2)c1` [Compound 763, 3-morpholino-5-[[1-(3-pyridyl)-1,2,4-triazol-3-yl]amino]benzonitrile]: under setting [1], the fold induction at 1 µM lay in the range of 10 to 100 and the fold induction at 10 µM fell in the range of 10 to 100.
`[2H]C1(N2C([2H])([2H])C([2H])([2H])N(c3cc(C)cc(Nc4ncn(-c5cc(F)cc(F)c5)n4)c3)C([2H])([2H])C2([2H])[2H])COC1` [Compound 997, 1-(3,5-difluorophenyl)-N-[3-methyl-5-[2,2,3,3,5,5,6,6-octadeuterio-4-(3-deuteriooxetan-3-yl)piperazin-1-yl]phenyl]-1,2,4-triazol-3-amine]: under setting [4], the fold induction at 1 µM was in the range of 100 to 1000 and the fold induction at 10 µM was at most 1.
`Cc1cc(Nc2ncn(-c3cc(F)cc(F)c3)n2)nc(N2CCC(C)(O)CC2)c1` [Compound 569, 1-[6-[[1-(3,5-difluorophenyl)-1,2,4-triazol-3-yl]amino]-4-methyl-2-pyridyl]-4-methyl-piperidin-4-ol]: under setting [1], the fold induction at 1 µM was in the range of 1 to 10 and the fold induction at 10 µM is 10 to 100.
The like results for `Cc1cc(Nc2ncn(-c3cc(F)cc(F)c3)n2)cc(C2CCCN(C3CC(C(=O)O)C3)C2)c1` (stereo not shown) [Compound 442, 3-[3-[3-[[1-(3,5-difluorophenyl)-1,2,4-triazol-3-yl]amino]-5-methyl-phenyl]-1-piperidyl]cyclobutanecarboxylic acid] were, in that order, 10 to 100 and 10 to 100.
In the case of `CSc1nccc(-n2cnc(Nc3cc(C)cc(N4CCN(C5COC5)CC4)c3)n2)n1` [Compound 64, N-[3-methyl-5-[4-(oxetan-3-yl)piperazin-1-yl]phenyl]-1-(2-methylsulfanylpyrimidin-4-yl)-1,2,4-triazol-3-amine], the fold induction at 1 µM under setting [2] is 10 to 100. In addition, under setting [3], the fold induction at 10 µM is at most 1.
Take `Cc1cc(N2CCN(C3COC3)CC2)cc(Nc2ncn(-c3cc(F)cc(F)c3)n2)c1F` [Compound 587, 1-(3,5-difluorophenyl)-N-[2-fluoro-3-methyl-5-[4-(oxetan-3-yl)piperazin-1-yl]phenyl]-1,2,4-triazol-3-amine]: under setting [1], the fold induction at 1 µM was 1 to 10 and the fold induction at 10 µM lay in the range of 10 to 100.
Consider `Cc1cc(-n2cnc(Nc3cc(C4CC4)cc(N4CCN(C5COC5)CC4)c3)n2)ncn1` [Compound 302, N-[3-cyclopropyl-5-[4-(oxetan-3-yl)piperazin-1-yl]phenyl]-1-(6-methylpyrimidin-4-yl)-1,2,4-triazol-3-amine], for which the fold induction at 1 µM under setting [2] fell in the range of 1000 to 10000. Also, the fold induction at 10 µM under setting [3] is 1000 to 10000.
Turning to `Cc1cc(Nc2ncn(-c3ccccc3)n2)cc(N2C[C@H]3CCN(C)[C@H]3C2)c1` [Compound 369, N-[3-[(3aR,6aR)-1-methyl-2,3,3a,4,6,6a-hexahydropyrrolo[2,3-c]pyrrol-5-yl]-5-methyl-phenyl]-l-phenyl-1,2,4-triazol-3-amine], the fold induction at 1 µM under setting [2] is 1000 to 10000. Further, under setting [3], the fold induction at 10 µM was at most 1.
As to `[2H]C1([2H])N(CCO)C([2H])([2H])C([2H])([2H])N(c2cc(C)cc(Nc3ncn(-c4cc(F)cc(F)c4)n3)c2)C1([2H])[2H]` [Compound 922, 2-[2,2,3,3,5,5,6,6-octadeuterio-4-[3-[[1-(3,5-difluorophenyl)-1,2,4-triazol-3-yl]amino]-5-methyl-phenyl]piperazin-1-yl]ethanol], under setting [4], the fold induction at 1 µM was in the range of 1 to 10 and the fold induction at 10 µM was at most 1.
As for `Cc1cc(Nc2ncn(-c3cc(F)cc(F)c3)n2)cc(N2CCC(CN3CCOCC3)C2)c1` (stereo not shown) [Compound 983, 1-(3,5-difluorophenyl)-N-[3-methyl-5-[3-(morpholinomethyl)pyrrolidin-1-yl]phenyl]-1,2,4-triazol-3-amine], under setting [4], the fold induction at 1 µM fell in the range of 1 to 10 and the fold induction at 10 µM lay in the range of 1 to 10.
For `CC(=O)N1CCN(c2cc(C(F)(F)F)cc(Nc3ncn(-c4cc(F)cc(F)c4)n3)n2)CC1` [Compound 555, 1-[4-[6-[[1-(3,5-difluorophenyl)-1,2,4-triazol-3-yl]amino]-4-(trifluoromethyl)-2-pyridyl]piperazin-1-yl]ethanone], under setting [1], the fold induction at 1 µM lay within 10 to 100 and the fold induction at 10 µM fell in the range of 100 to 1000.
Take `Cc1cc(Nc2ncn(-c3cc(F)cc(F)c3)n2)cc(C2CCNCC2)c1` [Compound 108, 1-(3,5-difluorophenyl)-N-[3-methyl-5-(4-piperidyl)phenyl]-1,2,4-triazol-3-amine]: under setting [2], the fold induction at 1 µM was in the range of 10 to 100. Under setting [3], the fold induction at 10 µM is at most 1.
As to `Cc1cc(Nc2ncn(-c3cccc(C(F)F)c3)n2)nc(N2CCN(C3COC3)CC2)c1` [Compound 848, N-[1-[3-(difluoromethyl)phenyl]-1,2,4-triazol-3-yl]-4-methyl-6-[4-(oxetan-3-yl)piperazin-1-yl]pyridin-2-amine], under setting [4], the fold induction at 1 µM fell in the range of 10 to 100 and the fold induction at 10 µM lay in the range of 10 to 100.
As for `Cc1cc(Nc2ncn(-c3ccc(F)c(F)c3)n2)cc(N2CC3(C2)CN(C(C)C)C3)c1` [Compound 977, 1-(3,4-difluorophenyl)-N-[3-(2-isopropyl-2,6-diazaspiro[3.3]heptan-6-yl)-5-methyl-phenyl]-1,2,4-triazol-3-amine], under setting [4], the fold induction at 1 µM lay in the range of 1 to 10 and the fold induction at 10 µM is at most 1.
On to `FC(F)(F)c1cc(Nc2ncn(-c3cccnc3)n2)nc(N2CCN(C3COC3)CC2)c1` [Compound 684, 6-[4-(oxetan-3-yl)piperazin-1-yl]-N-[1-(3-pyridyl)-1,2,4-triazol-3-yl]-4-(trifluoromethyl)pyridin-2-amine], for which, under setting [1], the fold induction at 1 µM lay in the range of 10 to 100 and the fold induction at 10 µM lay within 10 to 100.

Source of the values: patent US10766869B2, “Triazoles for the treatment of demyelinating dieases” (Vertex Pharmaceuticals Incorporated, priority 2015, dated 2020).
